The assay relates to influenza virus A/PR/8/34(H1N1). The assay is described as follows: ELISA inhibition of influenza virus binding to immobilised GM3. Particulars: 1 nmol GM3 per well, virus suspension 32 HAU, pre-incubated at 4° C. for two hours.

Structures are written as SMILES.

`CC(=O)N[C@H]1[C@H]([C@H](O)[C@H](O)CO)O[C@@](O[C@H]2[C@@H](O)[C@@H](CO)O[C@@H](O[C@H]3[C@H](O)[C@@H](O)C(O)O[C@@H]3CO)[C@@H]2O)(C(=O)O)C[C@@H]1O` (stereo partly shown) [Sialyl lactose] had an IC50 per molecule of 1.5e-07 mol.

Values taken from US6358919B1 (priority 1997, dated 2002).
